Assay results taken from US20260265329A1, “POLYPEPTIDE AND DERIVATIVE THEREOF, COMPOSITION, AND USE THEREOF” (HANGZHOU SCIWIND BIOSCIENCES CO., LTD., priority 2023, published 2026).
Non-standard residues stand in square brackets, D forms with d. Residues, ends and D or L forms follow the SMILES beside them. *: point of attachment. C20 diacid = O=C(O)CCCCCCCCCCCCCCCCCCC(=O)*; Hyp = O=C(O)[C@@H]1C[C@@H](O)CN1; AEEA = NCCOCCOCC(=O)O

Biological target: T1, human amylin receptors (Homo sapiens, UniProt O60896+P30988)
T1 construct: host or cells: CHO-K1/Ga15/AMY3 cells, further stably transfected with a CRE-luciferase plasmid
T1 sequence (P30988 25-474): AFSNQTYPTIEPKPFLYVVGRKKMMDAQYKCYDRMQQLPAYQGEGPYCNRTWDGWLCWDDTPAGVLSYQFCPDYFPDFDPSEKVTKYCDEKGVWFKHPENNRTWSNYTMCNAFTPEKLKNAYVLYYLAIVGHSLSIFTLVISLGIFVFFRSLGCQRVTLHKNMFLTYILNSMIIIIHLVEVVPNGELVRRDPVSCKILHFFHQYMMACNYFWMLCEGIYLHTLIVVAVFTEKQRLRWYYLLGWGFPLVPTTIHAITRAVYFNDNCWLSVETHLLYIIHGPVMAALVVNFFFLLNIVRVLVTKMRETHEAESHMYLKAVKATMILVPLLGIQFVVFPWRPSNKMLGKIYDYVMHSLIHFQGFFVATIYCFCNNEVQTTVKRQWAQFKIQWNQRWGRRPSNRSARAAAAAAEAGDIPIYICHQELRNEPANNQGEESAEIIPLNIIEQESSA
T1 sequence (O60896 24-148 partner): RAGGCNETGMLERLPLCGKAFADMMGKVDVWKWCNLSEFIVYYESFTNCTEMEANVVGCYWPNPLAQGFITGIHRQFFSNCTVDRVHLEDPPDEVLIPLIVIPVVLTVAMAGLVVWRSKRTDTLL
Test: Luciferase assay in stably transfected amylin receptor/CRE-luc CHO cell line
Assay type: cell-based
Conditions: for Relative activity: EC50 ratio of Cagrilintide to the compound, Cagrilintide 100%; for EC50: amylin receptor/CRE-luc CHO cells, 24 hours incubation, luminescence
From the text: The objective of this assay is to test the potency of derivatives of polypeptides of the present application on human amylin receptors in vitro using a luciferase assay. Using the standard protocol, CHO-K1/Ga15/AMY3 cells (purchased from GenScript, with the calcitonin receptor and the receptor activity modifying peptide (RAMP) constructed already) were transfected with a plasmid containing a luciferase expression cassette driven by multiple copies of cAMP response elements (CREs). The cells were cultured in an F12 medium containing 200 μg/mL Zeocin, 2 μg/mL puromycin, 100 μg/mL hygromycin, and 400 μg/mL G418 to afford a stably transfected amylin receptor/CRE-luc cell line. The lyophilized powder from Example 1 was dissolved in 20 mM phosphate buffer solution with a pH of 7.0, and diluted in a growth medium (F12 culture medium containing 10% FBS) to give a derivative sample with an initial concentration of 10 nM, which was then subjected to a 5-fold serial dilution in the growth medium to obtain seven samples with concentrations between […]. In each well of a white 96-well plate, 50 μL of the tested sample solution was added with a corresponding concentration. The stably transfected amylin receptor/CRE-luc CHO cells were resuspended in the growth medium at a certain density, and 50 μL of the cell suspension was added at a density of about 20000 cells per well to the white 96-well plate containing the tested sample solution. After incubation of 24 hours at 37° C. and 5% CO2, 100 μL of a Luciferase substrate was added to each well, incubated for 3 minutes, and finally was tested for luminescence on SpectraMax L (Molecular Devices) with the software SoftMax Pro 7.0.3 GxP.

Row | Relative activity [%] | EC50 [nM] | Structure (SMILES)
1 | 94 | 0.026 | CC[C@H](C)[C@H](NC(=O)[C@H](CC(=O)O)NC(=O)[C@H](CCCNC(=N)N)NC(=O)[C@H](CC(=O)O)NC(=O)[C@H](CCCNC(=N)N)NC(=O)[C@H](CC(=O)O)NC(=O)[C@@H](NC(=O)[C@H](Cc1ccccc1)NC(=O)[C@H](Cc1c[nH]cn1)NC(=O)[C@H](CCCNC(=N)N)NC(=O)[C@H](CC(C)C)NC(=O)[C@H](Cc1ccccc1)NC(=O)[C@H](CC(=O)O)NC(=O)[C@H](C)NC(=O)[C@H](CC(C)C)NC(=O)[C@H](CCCNC(=N)N)NC(=O)[C@H](CCC(N)=O)NC(=O)[C@@H](NC(=O)[C@H](C)NC(=O)[C@H](C)NC(=O)[C@@H](NC(=O)[C@H](CO)NC(=O)[C@H](CC(C)C)NC(=O)[C@H](CCC(N)=O)NC(=O)[C@H](CO)NC(=O)[C@H](C)NC(=O)COCCOCCNC(=O)COCCOCCNC(=O)[C@H](CCC(=O)O)NC(=O)CCCCCCCCCCCCCCCCCCC(=O)O)[C@@H](C)O)[C@@H](C)O)[C@@H](C)O)C(=O)N[C@@H](CC(C)C)C(=O)N1CCC[C@H]1C(=O)N1CCC[C@H]1C(=O)N[C@H](C(=O)N[C@@H](CC(N)=O)C(=O)N[C@H](C(=O)NCC(=O)N[C@@H](CO)C(=O)N[C@@H](CC(N)=O)C(=O)N[C@H](C(=O)N1CCC[C@H]1C(N)=O)[C@@H](C)O)C(C)C)[C@@H](C)O [M17] ({C20 diacid}-E[AEEA][AEEA]ASQLSTAATQRLADFLRHFTDRDRDILPPTNVGSNTP-NH2)
2 | 128 | 0.039 | CC[C@H](C)[C@H](NC(=O)[C@@H]1CCCN1C(=O)[C@H](CCCCN)NC(=O)[C@H](CC(C)C)NC(=O)[C@H](CC(N)=O)NC(=O)[C@H](CC(N)=O)NC(=O)[C@H](CO)NC(=O)[C@H](CO)NC(=O)[C@H](Cc1c[nH]cn1)NC(=O)[C@H](CCCNC(=N)N)NC(=O)[C@H](CC(C)C)NC(=O)[C@H](Cc1ccccc1)NC(=O)[C@H](CC(=O)O)NC(=O)[C@H](C)NC(=O)[C@H](CC(C)C)NC(=O)[C@H](CCCNC(=N)N)NC(=O)[C@H](CCC(N)=O)NC(=O)[C@@H](NC(=O)[C@H](C)NC(=O)[C@H](C)NC(=O)[C@@H](NC(=O)[C@H](CO)NC(=O)[C@H](CC(C)C)NC(=O)[C@H](CCC(N)=O)NC(=O)[C@H](CO)NC(=O)[C@H](C)NC(=O)[C@H](CC(=O)O)NC(=O)CCCCCCCCCCCCCCCCCCC(=O)O)[C@@H](C)O)[C@@H](C)O)C(=O)N[C@@H](CC(C)C)C(=O)N1CCC[C@H]1C(=O)N1CCC[C@H]1C(=O)N[C@H](C(=O)N[C@@H](CC(N)=O)C(=O)N[C@H](C(=O)NCC(=O)N[C@@H](CO)C(=O)N[C@@H](CC(N)=O)C(=O)N[C@H](C(=O)N1C[C@H](O)C[C@H]1C(N)=O)[C@@H](C)O)C(C)C)[C@@H](C)O [M28] ({C20 diacid}-DASQLSTAATQRLADFLRHSSNNLKPILPPTNVGSNT[Hyp]-NH2)
3 | 44 | 0.115 | CC[C@H](C)[C@H](NC(=O)[C@@H]1CCCN1C(=O)[C@H](CCCCN)NC(=O)[C@H](CC(C)C)NC(=O)[C@H](CC(N)=O)NC(=O)[C@H](CC(N)=O)NC(=O)[C@H](CO)NC(=O)[C@H](CO)NC(=O)[C@H](Cc1c[nH]cn1)NC(=O)[C@H](CCCNC(=N)N)NC(=O)[C@H](CC(C)C)NC(=O)[C@H](Cc1ccccc1)NC(=O)[C@H](CC(=O)O)NC(=O)[C@H](C)NC(=O)[C@H](CC(C)C)NC(=O)[C@H](CCCNC(=N)N)NC(=O)[C@H](CCC(N)=O)NC(=O)[C@@H](NC(=O)[C@H](C)NC(=O)[C@H](C)NC(=O)[C@@H](NC(=O)[C@H](CO)NC(=O)[C@H](CC(C)C)NC(=O)[C@H](CCC(N)=O)NC(=O)[C@H](CO)NC(=O)[C@H](C)NC(=O)COCCOCCNC(=O)COCCOCCNC(=O)[C@H](CCC(=O)O)NC(=O)CCCCCCCCCCCCCCCCCCC(=O)O)[C@@H](C)O)[C@@H](C)O)C(=O)N[C@@H](CC(C)C)C(=O)N1CCC[C@H]1C(=O)N1CCC[C@H]1C(=O)N[C@H](C(=O)N[C@@H](CC(N)=O)C(=O)N[C@H](C(=O)NCC(=O)N[C@@H](CO)C(=O)N[C@@H](CC(N)=O)C(=O)N[C@H](C(=O)N1C[C@H](O)C[C@H]1C(N)=O)[C@@H](C)O)C(C)C)[C@@H](C)O [M32] ({C20 diacid}-E[AEEA][AEEA]ASQLSTAATQRLADFLRHSSNNLKPILPPTNVGSNT[Hyp]-NH2)
